Reference: US11597706B2, “Compounds and compositions for treating conditions associated with NLRP activity” (Novartis AG, priority 2016, dated 2023)

The compounds below were run against T1, hNLRP3 (THP-1, IL-1β) (Homo sapiens, UniProt Q96P20) (assay: IL-1β production in PMA-differentiated THP-1 cells stimulated with gramicidin). Settings: Table 1, gramicidin 5 μM, IL-1β readout.
T1 construct: THP-1 cells were purchased from the American Type Culture Collection; host or cells: THP-1 cells, PMA-differentiated, stimulated with gramicidin
Assay type: cell-based
Procedure: IL-1β Production in PMA-Differentiated THP-1 Cells Stimulated With Gramicidin.
Cell culture-THP-1 cells were purchased from the American Type Culture Collection and sub-cultured according to instructions from the supplier. Prior to experiments, cells were cultured in RPMI 1640 containing 10% heat inactivated FBS, penicillin (100 units/ml) and streptomycin (100 μg/ml), and maintained in log phase prior to experimental setup. Prior to the experiment THP-1 were treated with PMA (Phorbol 12-myristate 13-acetate) (10 μg/ml) for 24 hours. The day of the experiment the media was removed and attaching cells were treated with trypsin for 2 minutes, cells were then collected, washed with PBS (phosphate buffer saline), spin down, resuspended in 2% heat inactivated FBS with RPMI at a concentration of 1×10^6 cells/ml, and 100 μl was plated in a 96 well plate. Cells were incubated with compounds for 1 hours and then stimulated with Gramicidin (5 μM) (Enzo) for 2 hours. Cell free supernatant was collected and the production of IL-1β was evaluated by ELISA. Compounds were dissolved in dimethyl sulfoxide (DMSO) and added to the culture medium to achieve desired concentration (e.g. 100, 30, 10, 3, 1, 0.3 or 0.1 μM). A vehicle only control was run concurrently with each experiment. Final DMSO concentration was 1%.
THP-1 cells were purchased from the American Type Culture Collection and sub-cultured according to instructions from the supplier. Prior to experiments, cells were cultured in complete RPMI 1640 (containing 10% heat inactivated FBS, penicillin (100 units/ml) and streptomycin (100 μg/ml)), and maintained in log phase prior to experimental setup. Prior to the experiment THP-1 were treated with PMA (Phorbol 12-myristate 13-acetate) (20 ng/ml) for 16-18 hours. On the day of the experiment the media was removed and adherent cells were detached with trypsin for 5 minutes. Cells were then harvested, washed with complete RPMI 1640, spun down, resuspended in RPMI 1640 (containing 2% heat inactivated FBS, penicillin (100 units/ml) and streptomycin (100 μg/ml). The cells were plated in a 384-well plate at a density of 50,000 cells/well (final assay volume 50 μl). Compounds were dissolved in dimethyl sulfoxide (DMSO) and added to the culture medium to achieve desired concentration (e.g. 100, 33, 11, 3.7, 1.2, 0.41, 0.14, 0.046, 0.015, 0.0051, 0.0017 μM). Cells were incubated with compounds for 1 hour and then stimulated with gramicidin (5 μM) (Enzo) for 2 hours. Cell free supernatant was collected and the production of IL-1β was evaluated by HTRF (cisbio). A vehicle only control was run concurrently with each experiment. Final DMSO concentration was 0.38%.

T1 sequence (Q96P20 whole entry): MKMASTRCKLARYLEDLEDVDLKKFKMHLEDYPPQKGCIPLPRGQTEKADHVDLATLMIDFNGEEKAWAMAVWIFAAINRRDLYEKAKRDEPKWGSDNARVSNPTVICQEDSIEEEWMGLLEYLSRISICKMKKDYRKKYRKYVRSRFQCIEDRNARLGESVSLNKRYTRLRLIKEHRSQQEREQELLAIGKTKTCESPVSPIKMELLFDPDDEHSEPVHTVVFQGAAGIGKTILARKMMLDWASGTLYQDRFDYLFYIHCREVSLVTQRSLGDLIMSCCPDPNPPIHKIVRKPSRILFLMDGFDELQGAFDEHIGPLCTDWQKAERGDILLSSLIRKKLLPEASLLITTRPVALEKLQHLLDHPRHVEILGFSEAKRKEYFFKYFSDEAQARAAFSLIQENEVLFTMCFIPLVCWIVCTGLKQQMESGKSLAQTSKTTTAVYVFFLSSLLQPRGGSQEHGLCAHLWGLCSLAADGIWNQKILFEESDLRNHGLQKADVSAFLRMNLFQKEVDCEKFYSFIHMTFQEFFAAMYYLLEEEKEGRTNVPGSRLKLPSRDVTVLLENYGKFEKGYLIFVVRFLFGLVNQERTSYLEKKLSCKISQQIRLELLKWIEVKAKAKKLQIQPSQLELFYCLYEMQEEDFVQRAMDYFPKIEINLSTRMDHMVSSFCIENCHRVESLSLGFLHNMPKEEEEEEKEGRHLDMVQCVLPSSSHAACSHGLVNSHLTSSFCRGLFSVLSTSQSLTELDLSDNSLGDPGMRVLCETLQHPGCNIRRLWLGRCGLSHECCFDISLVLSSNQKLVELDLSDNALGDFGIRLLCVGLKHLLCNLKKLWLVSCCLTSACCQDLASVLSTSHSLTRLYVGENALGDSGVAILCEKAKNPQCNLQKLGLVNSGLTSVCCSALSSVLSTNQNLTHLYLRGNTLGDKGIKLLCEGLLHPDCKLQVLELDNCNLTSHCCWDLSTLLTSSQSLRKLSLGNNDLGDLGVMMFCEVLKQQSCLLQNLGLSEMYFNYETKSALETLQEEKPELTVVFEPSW

`CC(C)c1cc(F)cc(C(C)C)c1NC(=O)NS(=O)(=O)c1cc(C#N)cc(C(C)(C)O)c1` [Compound 117, 3-cyano-N-(4-fluoro-2,6-diisopropylphenylcarbamoyl)-5-(2-hydroxypropan-2-yl)benzenesulfonamide] and `CC(C)c1cc(F)cc(C(C)C)c1NC(=O)NS(=O)(=O)c1cc(F)cc(C(C)(C)O)c1` [Compound 127, 3-fluoro-N-(4-fluoro-2,6-diisopropylphenylcarbamoyl)-5-(2-hydroxypropan-2-yl)benzenesulfonamide] cannot be ordered by IC50: under 1000 nM for the first, under 1000 nM for the second.

Compound `CC(C)c1cccc(C(C)C)c1NC(=O)NS(=O)(=O)c1cc(C#N)cc(C(C)(C)O)c1` [Compound 115, 3-cyano-N-(2,6-diisopropylphenylcarbamoyl)-5-(2-hydroxypropan-2-yl)benzenesulfonamide] has an IC50 of under 1000 nM.

Same assay, conditions: Table 2, gramicidin 5 μM, IL-1β readout

`CC(C)c1ccc(F)c(C(C)C)c1NC(=O)NS(=O)(=O)c1cc(C#N)cc(C(C)(C)O)c1` [Compound 148, 3-cyano-N-(3-fluoro-2,6-diisopropylphenylcarbamoyl)-5-(2-hydroxypropan-2-yl)benzenesulfonamide] and `CC(C)c1ccc(F)c(C(C)C)c1NC(=O)NS(=O)(=O)c1ccc(C(C)(C)O)cc1` [Compound 170, N-(3-fluoro-2,6-diisopropylphenylcarbamoyl)-4-(2-hydroxypropan-2-yl)benzenesulfonamide] fall in the same range of IC50: 1000 to 5000 nM for the first, 1000 to 5000 nM for the second.

First: CC(C)c1ccc(F)c(C(C)C)c1NC(=O)NS(=O)(=O)c1cc(-c2ccncc2)cc(C(C)(C)O)c1 [Compound 159, N-(3-fluoro-2,6-diisopropylphenylcarbamoyl)-3-(2-hydroxypropan-2-yl)-5-(pyridin-4-yl)benzenesulfonamide]
Second: CC(C)c1cc(F)cc(C(C)C)c1NC(=O)NS(=O)(=O)c1ccc(C(C)(C)O)cc1 [Compound 165, N-(4-fluoro-2,6-diisopropylphenylcarbamoyl)-4-(2-hydroxypropan-2-yl)benzenesulfonamide]
The IC50 of the first is higher: 5000 to 15000 nM for the first, under 1000 nM for the second. The second is the more potent here.

First: CC(C)c1cc(C#N)cc(C(C)C)c1NC(=O)NS(=O)(=O)c1cc(Cl)cc(C(C)(C)O)c1 [Compound 138, 3-chloro-N-(4-cyano-2,6-diisopropylphenylcarbamoyl)-5-(2-hydroxypropan-2-yl)benzenesulfonamide]
Second: CC(C)c1cc(Cl)cc(C(C)C)c1NC(=O)NS(=O)(=O)c1cc(Cl)cc(C(C)(C)O)c1 [Compound 154, 3-chloro-N-(4-chloro-2,6-diisopropylphenylcarbamoyl)-5-(2-hydroxypropan-2-yl)benzenesulfonamide]
The IC50 of the first is lower: under 1000 nM for the first, 1000 to 5000 nM for the second. The first is the more potent here.

`CC(C)c1cc(C#N)cc(C(C)C)c1NC(=O)NS(=O)(=O)c1ccc(C(C)(C)O)cc1` [Compound 168, N-(4-cyano-2,6-diisopropylphenylcarbamoyl)-4-(2-hydroxypropan-2-yl)benzenesulfonamide] and `CC(C)c1cc(Cl)cc(C(C)C)c1NC(=O)NS(=O)(=O)c1cc(F)cc(C(C)(C)O)c1` [Compound 150, N-(4-chloro-2,6-diisopropylphenylcarbamoyl)-3-fluoro-5-(2-hydroxypropan-2-yl)benzenesulfonamide] fall in the same range of IC50: 1000 to 5000 nM for the first, 1000 to 5000 nM for the second.

`CC(C)(O)c1cc(N2CCOCC2)cc(S(=O)(=O)NC(=O)Nc2c3c(cc4c2CCC4)CCC3)c1` [Compound 146] and `CC(C)(O)c1cc(C(C)(C)O)cc(S(=O)(=O)NC(=O)Nc2c3c(cc4c2CCC4)CCC3)c1` [Compound 143] cannot be ordered by IC50: under 1000 nM for the first, under 1000 nM for the second.

For `CC(C)(O)c1ccc(S(=O)(=O)NC(=O)Nc2c3c(c(F)c4c2CCC4)CCC3)cc1` [Compound 160, N-(8-fluoro-1,2,3,5,6,7-hexahydro-sindacen-4-ylcarbamoyl)-4-(2-hydroxypropan-2-yl)benzenesulfonamide], the IC50 was under 1000 nM.
